According to PMC2813863, “In Vivo Evaluation of α7 Nicotinic Acetylcholine Receptor Agonists [^11C]A-582941 and [^11C]A-844606 in Mice and Conscious Monkeys” (PLoS ONE, 2010):
“And” between values parts separate entries of the source, which are not always exact repeats. Equal values may be shown once. Read-outs that look alike come from different tables or passages of the source.

What was measured:
[1] = biological target: α7 nAChRs (Mus musculus, UniProt P49582); conditions: in vivo
Method: In the other group of mice, a blocking experiment to determine the α7 nAChRs-specific regional brain uptake of the tracers was carried out. Each tracer (2 MBq/0.055–0.096 nmol) was co-injected with each of the following blockers into mice, and 15 ([^11C]A-582941) or 30 ([^11C]A-844606) min later the mice were killed (n = 5) and the tissue uptake of ^11C was expressed as the %ID/g. […] Each blocker was dissolved in 1N HCl to 40 mg/ml and diluted up to 0.4 mg/ml with saline. The co-injected dose was 1 mg/kg. In the control mice the same amount of 0.01 N HCl in saline was co-injected.

[2] = biological target: α4β2; conditions: read-out: K i α4β2; cited from earlier work
[3] = biological target: α4β2; conditions: read-out: K i α4β2; cited from earlier work; remark: listed apart in the source
[4] = biological target: 5-HT3 receptors; assay: Displacement of [^3H]-BRL 43694 (Granisetron) binding
[5] = biological target: heteromeric α4β2 subtypes; conditions: rat brain membranes; read-out: K i, [^3H]cytisine binding; cited from earlier work
[6] = tested on: >75 binding sites; conditions: 10 µM, exception 5-HT3 receptors; cited from earlier work
[7] = tested on: 5-HT3 receptors; conditions: cited from earlier work
[8] = cited from earlier work
[9] = tested on: α7 nAChRs; conditions: read-out: IC50, displacement of [^3H]MLA binding; cited from earlier work
[10] = tested on: α4β2 nAChRs; conditions: read-out: IC50, displacement of [^3H]cytisine binding to α4β2 nAChRs; cited from earlier work

Sequence of α7 nAChRs (Mus musculus, UniProt P49582) (P49582 23-502): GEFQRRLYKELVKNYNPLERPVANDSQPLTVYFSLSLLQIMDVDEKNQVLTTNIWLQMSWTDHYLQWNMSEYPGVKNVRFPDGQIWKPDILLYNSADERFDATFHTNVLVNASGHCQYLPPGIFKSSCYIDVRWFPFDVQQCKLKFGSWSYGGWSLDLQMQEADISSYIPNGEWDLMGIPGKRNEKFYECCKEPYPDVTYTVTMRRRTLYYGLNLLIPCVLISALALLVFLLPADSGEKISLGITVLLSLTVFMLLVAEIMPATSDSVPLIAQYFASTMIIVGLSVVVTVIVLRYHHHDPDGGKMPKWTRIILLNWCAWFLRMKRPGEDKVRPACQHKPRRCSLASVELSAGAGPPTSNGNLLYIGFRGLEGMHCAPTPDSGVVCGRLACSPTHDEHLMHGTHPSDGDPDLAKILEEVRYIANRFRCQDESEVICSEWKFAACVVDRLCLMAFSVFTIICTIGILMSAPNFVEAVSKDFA

Row | SMILES | % Injected dose/g tissue, Blood [1] | % Injected dose/g tissue, Cerebellum [1] | % Injected dose/g tissue, Cerebral cortex [1] | % Injected dose/g tissue, Hippocampus [1] | % Injected dose/g tissue, Hypothalamus [1] | % Injected dose/g tissue, Medulla oblongata [1] | % Injected dose/g tissue, Midbrain [1] | % Injected dose/g tissue, Striatum [1] | % Injected dose/g tissue, Whole brain [1] | further results
1 | c1cncc(OC[C@@H]2CCN2)c1 [A-85380, 3-(2(S)-azetidynilmethoxy)pyridine] | 0.85±0.06 % Injected dose/g tissue and 0.54±0.12 % Injected dose/g tissue | 3.76±0.50 % Injected dose/g tissue and 6.22±1.26 % Injected dose/g tissue | 4.53±0.61 % Injected dose/g tissue and 7.57±1.48 % Injected dose/g tissue | 3.92±0.54 % Injected dose/g tissue and 5.58±1.26 % Injected dose/g tissue | 3.97±0.65 % Injected dose/g tissue and 5.00±0.96 % Injected dose/g tissue | 3.99±0.49 % Injected dose/g tissue and 5.46±1.15 % Injected dose/g tissue | 4.52±0.68 % Injected dose/g tissue and 6.84±1.71 % Injected dose/g tissue | 4.33±0.75 % Injected dose/g tissue and 6.47±1.38 % Injected dose/g tissue | 4.26±0.57 % Injected dose/g tissue and 6.64±1.33 % Injected dose/g tissue | Ki [2]: 0.04 nM; Ki [3]: 0.05 nM
2 | CN1CC2CN(c3ccc(-c4ccccc4)nn3)CC2C1 (stereo not shown) [A-582941, 2-methyl-5-[6-phenylpyridazine-3-yl]octahydropyrrolo[3,4-c]pyrrole] | 0.61±0.07 % Injected dose/g tissue | 5.17±0.97 % Injected dose/g tissue | 8.38±1.22 % Injected dose/g tissue | 6.48±1.31 % Injected dose/g tissue | 4.76±1.17 % Injected dose/g tissue | 5.58±1.26 % Injected dose/g tissue | 5.80±1.46 % Injected dose/g tissue | 6.81±1.05 % Injected dose/g tissue | 6.71±1.09 % Injected dose/g tissue | K i for 5-HT3 receptors relative to that for α7 nAChRs [4]: ~15 fold; Ki [5]: > 100000 nM; displacement of binding of >75 binding sites [6]: did not show significant displacement; displacement of [^3H]-BRL 43694 (Granisetron) binding ([7]; at 10 µM): > 85%; Ki ([7]; read-out: K i for 5-HT3 receptors): 154 nM; clog P [8]: 2.3; pKa, N-methylated tertiary amine [8]: 8.75; pKa, aminopyridazine [8]: 4.44; log D at pH 7.4 ([8]; pH 7.4): 1.0
3 | CN1CC2CN(c3ccc4oc5ccccc5c(=O)c4c3)CC2C1 (stereo not shown) [A-844606, 2-(5-methyl-hexahydro-pyrrolo[3,4-c]pyrrol-2-yl)-xanthene-9-one] | 0.91±0.10 % Injected dose/g tissue | 3.62±0.10 % Injected dose/g tissue | 4.78±0.19 % Injected dose/g tissue | 4.20±0.55 % Injected dose/g tissue | 3.50±0.87 % Injected dose/g tissue | 4.04±0.19 % Injected dose/g tissue | 4.29±0.11 % Injected dose/g tissue | 3.94±0.89 % Injected dose/g tissue | 4.27±0.18 % Injected dose/g tissue | IC50 [9]: 11 nM; IC50 [10]: > 30000 nM
